From EPA's ToxValDB 9.5 (doi:10.2903/j.efsa.2008.116r)

Columns and labels:
Typhlodromus pyri = test: LR50; higher = less toxic; conditions: not reported; mortality
Aphidius rhopalosiphi = test: LR50; higher = less toxic; conditions: not reported; mortality
Daphnia magna = conditions: chronic/long-term; duration: 21 days; reproduction
Oncorhynchus mykiss = conditions: chronic/long-term; duration: 21 days; growth
Mus musculus = conditions: acute; oral; mortality
Apis mellifera = conditions: acute; duration: 48 hours; dermal; mortality
Coturnix coturnix = conditions: reproduction developmental
Tagia sp. = conditions: acute; duration: 14 days; mortality
Canidae = conditions: oral, Dog Other, clinical chemistry
Lepomis macrochirus = conditions: acute; duration: 96 hours; mortality
Coturnix japonica = conditions: acute, oral, mortality

**Q.** For `COc1cc(OC)nc(NC(=O)NS(=O)(=O)N(C)S(C)(=O)=O)n1` [Amidosulfuron], which LR50 (Typhlodromus pyri) is on record?
**A.** The LR50 was greater than 45 g/ha.

**Q.** What about the LR50 (Aphidius rhopalosiphi) of the same compound?
**A.** The LR50 was greater than 45 g/ha.

**Q.** And the NOEC (Daphnia magna)?
**A.** Its NOEC is 1 mg/L.

**Q.** And the NOEC (Oncorhynchus mykiss)?
**A.** The NOEC was 6.41 mg/L.

**Q.** What about the LD50 (Mus musculus) of the same compound?
**A.** The LD50 was no less than 5000 mg/kg-day.

**Q.** What about the NOEC (Rattus norvegicus; chronic, mortality) of the same compound?
**A.** Its NOEC is 400 mg/kg-day.

**Q.** What about the NOAEL (Rattus norvegicus; reproduction developmental, body weight) of the same compound?
**A.** Its NOAEL is 22.5 mg/kg-day.

**Q.** What about the NOEC (Rattus norvegicus; reproduction developmental, organ weight) of the same compound?
**A.** Its NOEC is 22.5 mg/kg-day.

**Q.** And the LD50 (Apis mellifera)?
**A.** The LD50 was greater than 100 µg/piece.

**Q.** And the NOEC (Coturnix coturnix)?
**A.** The NOEC was 1000 mg/kg-day.

**Q.** And the LC50 (Tagia sp.)?
**A.** The LC50 was greater than 1000 mg/kg.

**Q.** And the NOAEL (Canidae; chronic, duration: 52 weeks)?
**A.** The NOAEL was 144 mg/kg-day.

**Q.** And the NOAEL (Canidae; subchronic, duration: 3 months)?
**A.** Its NOAEL is 144 mg/kg-day.

**Q.** And the LC50 (Lepomis macrochirus)?
**A.** The LC50 was greater than 100 µg/mL.

**Q.** And the LC50 (Coturnix japonica; diet)?
**A.** Its LC50 is greater than 1170 mg/kg-day.

**Q.** What about the LD50 (Coturnix japonica) of the same compound?
**A.** The LD50 was greater than 2000 mg/kg-day.
